Experiment: xn = mol fraction of the nth substance listed
Conditions: 100 kPa

O=C1OCCO1 + CC[n+]1ccn(C)c1.O=S(=O)([N-]S(=O)(=O)C(F)(F)F)C(F)(F)F
Conditions | electrical conductivity [S/m] | viscosity [mPa·s]
293.15 K, x1 = 0.33 | 1.02 | –
293.15 K, x1 = 0.5263 | – | 15.1
293.15 K, x1 = 0.53 | 1.24 | –
293.15 K, x1 = 0.7476 | – | 8.1
293.15 K, x1 = 0.75 | 1.57 | –
293.15 K, x1 = 0.82 | 1.52 | –
293.15 K, x1 = 0.87 | 1.44 | –
293.15 K, x1 = 0.91 | 1.33 | –
293.15 K, x1 = 0.95 | 1.03 | –
303.15 K, x1 = 0.8163 | – | 4.1
303.15 K, x1 = 0.9467 | – | 3
313.15 K, x1 = 0.33 | 1.68 | –
313.15 K, x1 = 0.5263 | – | 9
313.15 K, x1 = 0.53 | 1.97 | –
313.15 K, x1 = 0.66 | 2.32 | –
313.15 K, x1 = 0.7476 | – | 4.6
313.15 K, x1 = 0.75 | 2.34 | –
313.15 K, x1 = 0.8163 | – | 3.4
313.15 K, x1 = 0.82 | 2.23 | –
313.15 K, x1 = 0.87 | 2.05 | –
313.15 K, x1 = 0.91 | 1.86 | –
313.15 K, x1 = 0.9467 | – | 2.4
313.15 K, x1 = 0.98 | 0.85 | –
313.15 K, x1 = 1 | – | 1.81
323.15 K, x1 = 0.5263 | – | 7.1
323.15 K, x1 = 0.7476 | – | 3.9
323.15 K, x1 = 0.8163 | – | 2.8
323.15 K, x1 = 0.9467 | – | 2.1
323.15 K, x1 = 1 | – | 1.56
333.15 K, x1 = 0.5263 | – | 5.8
333.15 K, x1 = 0.53 | 2.71 | –
333.15 K, x1 = 0.66 | 3.2 | –
333.15 K, x1 = 0.7476 | – | 3.3
333.15 K, x1 = 0.75 | 3.18 | –
333.15 K, x1 = 0.82 | 2.98 | –
333.15 K, x1 = 0.87 | 2.7 | –
333.15 K, x1 = 0.91 | 2.45 | –
333.15 K, x1 = 0.9467 | – | 1.84
333.15 K, x1 = 0.98 | 1.1 | –
333.15 K, x1 = 1 | – | 1.4
343.15 K, x1 = 0.7476 | – | 2.7
343.15 K, x1 = 0.8163 | – | 1.97
343.15 K, x1 = 0.9467 | – | 1.48
353.15 K, x1 = 0.33 | 3.29 | –
353.15 K, x1 = 0.5263 | – | 4
353.15 K, x1 = 0.53 | 4.04 | –
353.15 K, x1 = 0.7476 | – | 2.3
353.15 K, x1 = 0.75 | 4.43 | –
353.15 K, x1 = 0.8163 | – | 1.74
353.15 K, x1 = 0.87 | 3.59 | –
353.15 K, x1 = 0.91 | 3.01 | –
353.15 K, x1 = 0.95 | 2.29 | –
353.15 K, x1 = 1 | – | 1.07
363.15 K, x1 = 0.5263 | – | 3.4
363.15 K, x1 = 0.7476 | – | 2.03
363.15 K, x1 = 0.9467 | – | 1.2
363.15 K, x1 = 1 | – | 0.96
373.15 K, x1 = 0.7476 | – | 1.83
373.15 K, x1 = 0.8163 | – | 1.4
373.15 K, x1 = 0.9467 | – | 1.08
383.15 K, x1 = 0.5263 | – | 2.7
383.15 K, x1 = 0.8163 | – | 1.29
383.15 K, x1 = 0.9467 | – | 0.97
383.15 K, x1 = 1 | – | 0.74
393.15 K, x1 = 0.5263 | – | 2.4
393.15 K, x1 = 0.8163 | – | 1.19
393.15 K, x1 = 1 | – | 0.71

CC[n+]1ccn(C)c1.O=S(=O)([N-]S(=O)(=O)C(F)(F)F)C(F)(F)F + O=C1OCCO1
x2 = 0
Conditions | electrical conductivity [S/m] | viscosity [mPa·s]
293.15 K | 0.73 | 41.6
298.15 K | 0.9 | 33.9
303.15 K | – | 27.3
313.15 K | 1.29 | 19.1
323.15 K | – | 14.4
333.15 K | 1.94 | 11.3
343.15 K | – | 8.3
353.15 K | 2.73 | 6.8
363.15 K | – | 5.6
373.15 K | – | 4.8
